Literature values as cited in patent US12133900B2, “Synthesis and composition of amino acid linking groups conjugated to compounds used for the targeted imaging of tumors” (Purdue Research Foundation, priority 2013, dated 2024).

Assays:
[1] = system: malignant lesions in human ovarian cancer patients; conditions: intra-operative; cited from earlier work
[2] = instability of the thiourea bridge; cited from earlier work

Nc1nc2ncc(CNc3ccc(C(=O)NC(CCC(=O)NCCNC(=S)Nc4ccc(-c5c6ccc(=O)cc-6oc6cc(O)ccc56)c(C(=O)O)c4)C(=O)O)cc3)nc2c(=O)[nH]1 (stereo not drawn) [EC17, folate-ethelenediamine-fluorescein isothiocynate]
more malignant lesions removed with the dye than without it [1]: ~5 ×
pathology of resected fluorescent lesions [1]: confirmed by pathology to be malignant
shelf-life stability [2]: easily decomposes
